Data reported in patent US20120295838A1, “Selective poly-substituted glycine antibiotics and related compositions” (priority 2008, published 2012).
Converted amounts (≈) assume the structure as drawn. One block for each compound: values may come before it. Numbered stars: 1 amine (or outer) side, 2 acyl side, 3 side chain; on linkers, the order of the positions; unused ones are H or OH. Square brackets hold non-standard residues; d marks the D form. Peptide text beside a SMILES is read from it. X2 = CCC[C@H](C)N(CC(=O)[*:2])[*:1]; Nspe = C[C@H](NCC(=O)O)c1ccccc1; Nphe = O=C(O)CNCc1ccccc1; Nlys = NCCCCNCC(=O)O

Experiments:
E. coli ATCC 35218 = assay type: cell-based; conditions: ATCC 35218
[1] = tested on: Staphylococcus aureus NRS100 (COL); assay type: cell-based; conditions: NRS100 (COL)
Procedure: (§1) Antibacterial assays. MICs were determined according to CLSI M7-A6 protocols in a 96-well microtiter plate. In test wells, 50 uL bacterial inoculum (5×10^5 CFU/ml) in Mueller-Hinton broth (MHB) was added to 50 μL peptoid solution in MHB (prepared by 1:2 serial dilutions). Positive controls contained 50 μL inoculum and 50 μL MHB without peptoid. […] MIC values reported were reproducible between three independent experimental replicates, each consisting of two parallel trials. Broad-spectrum antimicrobial susceptibility testing was performed against BSL2 pathogens by Nova Biologicals, Inc. (Conroe, Tex.).
(§2) Broad-spectrum antibacterial assays. MICs of compounds were determined by microdilution procedure in Mueller-Hinton broth (MHB) in accordance with CLSI M7-A6 protocols in a manner similar to that described for the screen antibacterial assays. Inoculated microtiter plates were incubated at 35° C. for 24 hours prior to the result being recorded. Four ATCC strains that were used as standards are recommended by CLSI: Pseudomonas aeruginosa ATCC 27853, Escherichia coli ATCC 25922, Staphylococcus aureus ATCC 29213 and Enterococcus faecalis ATCC 29212. Other strains from the ATCC collection include Proteus vulgaris ATCC 49132, Proteus mirabilis ATCC 35659, Klebsiella pneumoniae ATCC 33495, Enterobacter aerogenes ATCC 35029 and Serratia marcescens ATCC 13880. S. aureus NRS100 (COL) is a well characterized methicillian-resistant S. aureus (MRSA) strain. The strains S. aureus VAN1 and S. aureus VAN2, vancomycin-resistant MRSA strains that were isolated in Michigan and Pennsylvania, were the first vancomycin-resistant strains clinically isolated. S. aureus NRS 119 and S. aureus NRS 120 are linezolid-resistant isolates from the Network on Antimicrobial Resistance in S. aureus (NARSA) collection. E. faecalis 99 and E. faecium 106 are vancomycin-resistant enterococcal strains.

[2] = tested on: Staphylococcus aureus VAN2; assay type: cell-based; conditions: VAN2
Procedure: as §1, §2

[3] = tested on: Staphylococcus aureus NRS119; assay type: cell-based; conditions: NRS119
Procedure: as §1, §2

Enterococcus faecium 106 = assay type: cell-based; conditions: 106
Procedure: as §1, §2

[4] = tested on: Staphylococcus aureus NRS120; assay type: cell-based; conditions: NRS120
Procedure: as §1, §2

Enterococcus faecalis 99 = assay type: cell-based; conditions: 99
Procedure: as §1, §2

[5] = tested on: Proteus vulgaris ATCC 49132; assay type: cell-based; conditions: ATCC 49132
Procedure: as §1, §2

[6] = tested on: Klebsiella pneumoniae ATCC 33495; assay type: cell-based; conditions: ATCC 33495
Procedure: as §1, §2

[7] = tested on: Enterococcus faecalis ATCC 29212; assay type: cell-based; conditions: ATCC 29212
Procedure: as §1, §2

[8] = tested on: Pseudomonas aeruginosa ATCC 27853; assay type: cell-based; conditions: ATCC 27853
Procedure: as §1, §2

[9] = tested on: Staphylococcus aureus VAN1; assay type: cell-based; conditions: VAN1
Procedure: as §1, §2

[10] = tested on: Enterobacter aerogenes ATCC 35029; assay type: cell-based; conditions: ATCC 35029
Procedure: as §1, §2

[11] = tested on: Staphylococcus aureus ATCC 29213; assay type: cell-based; conditions: ATCC 29213
Procedure: as §1, §2

[12] = tested on: Escherichia coli ATCC 25922; assay type: cell-based; conditions: ATCC 25922
Procedure: as §1, §2

MTS assay, NIH 3T3 cells = assay type: cell-based, mouse; conditions: mouse, NIH 3T3 fibroblast cells
Method in brief: (§3)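 NIH/3T3 cells seeded at 5,000 per well, grown a day in DMEM with 10% FBS, then washed and exposed to serially diluted peptoid in HBSS together with MTS reagent. Absorbance at 490 nm read after 3 hours at 37 °C as a measure of metabolic activity; mean of six replicates.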

[13] = tested on: NIH 3T3 mouse fibroblast cells; experiment: MTS assay, NIH 3T3 cells; assay type: cell-based
Method in brief: as §3

human erythrocytes = experiment: Hemolysis assay; assay type: cell-based
Method in brief: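 Heparinised fresh human erythrocytes, 20 vol % in PBS pH 7.4, mixed 1:1 with 1:2 serially diluted peptoid and incubated 1 h at 37 °C. PBS alone as 0% and 0.2 vol % Triton X-100 as 100% hemolysis; after 1200 g spin for 15 min, supernatant A350 read.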

[14] = tested on: A549 lung epithelial cells; experiment: MTS assay, A549 cells
Procedure: The biocompatibility of selected oligomers with A549 lung epithelial cells was evaluated using the MTS [3-(4,5-dimethylthiazol-2-yl)-5-(3-carboxymethoxyphenyl)-2-(4-sulfophenyl)-2H-tetrazolium] assay.
MTS Assays. A549 carcinoma-derived lung epithelial cells (ATTC CCL-185) were cultured in Ham's F12K media (ATTC, Manassas, Va.). A peptoid solution plate (100 μL/well) was prepared by serial dilution of aqueous peptoid stocks in media. Peptoid solutions were transferred onto a 96-well plate of day-old cell monolayers containing 100 μL/well media with 5000 cells/well. MTS reagent (Promega Corporation, Madison, Wis.) (40 μL/well) was added to each well and the plate was incubated at 37° C. for 3 h, after which absorbance at 490 nm was determined. Percent inhibition was determined as [1−(A−Atest blank)/(Acontrol−Ablank)]×100, where A is the absorbance of the test well and Acontrol the average absorbance of wells with cells exposed to media and MTS (no peptoid). Atest blank (media, MTS, and peptoid) and Ablank (media and MTS) were background absorbances measured in the absence of cells. The average of six replicates are reported, and error bars show one standard deviation.

B. subtilis ATCC 6633 = assay type: cell-based; conditions: ATCC 6633
Method in brief: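 Broth microdilution MICs per CLSI M7-A6 in cation-adjusted Mueller-Hinton broth, using 1×10^6 CFU/mL inoculum added 1:1 to twofold serial peptoid dilutions. Values reproducible across three independent experiments, each with two parallel trials.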

E. coli JM109 = assay type: cell-based; conditions: Table 1; SR = (HD10)/(E. coli MIC)
Text: An initial set of 15 ampetoid analogs was synthesized to determine whether peptoids are affected by structural and sequence modifications in a manner consistent with AMP activities. The designs for ampetoids in this library were derived from two antibacterial and selective amphipathic dodecamers, 1 and 2. Peptoid 1 [H-(Nlys-Nspe-Nspe)4-NH2] is composed of 2/3 Nspe, the peptoid analog of phenylalanine, and 1/3 Mys, the peptoid analog of lysine (see FIG. 1 for the structures of representative peptoid monomers and corresponding N-substituents). Peptoid 2 [H-(Mys-Nssb-Nspe)4-NH2] contains 1/3 isoleucine-like Nssb monomers in place of Nspe. The variant sequences were designed to effect changes in chirality, length, hydrophobicity, charge, and amphipathicity. All of these compounds were tested for antibacterial activity against representative BSL1 Gram-negative (E. coli JM109) and Gram-positive (B. subtilis BR151) bacterial strains. As an initial measure of selectivity, the lytic activity of the peptoids was determined against human erythrocytes. Table 1 summarizes the sequences synthesized, the solvent composition at RP-HPLC elution as a relative measure of molecular hydrophobicity, and antibacterial and hemolytic activities.
Antibacterial assays. MICs were determined according to CLSI M7-A6 protocols in a 96-well microtiter plate. […]

SMILES: C[C@@H](c1ccccc1)N(CC(N)=O)C(=O)CN(Cc1ccccc1)C(=O)CN(CCCCN)C(=O)CN(C(=O)CN(Cc1ccccc1)C(=O)CN(CCCCN)C(=O)CN(C(=O)CN(Cc1ccccc1)C(=O)CN(CCCCN)C(=O)CN(C(=O)CN(Cc1ccccc1)C(=O)CNCCCCN)[C@@H](C)c1ccccc1)[C@@H](C)c1ccccc1)[C@@H](C)c1ccccc1 [1-Npm2,5,8,11, H-(Nlys-Npm-Nspe)4-NH2] (H-[Nlys][Nphe][Nspe][Nlys][Nphe][Nspe][Nlys][Nphe][Nspe][Nlys][Nphe][Nspe]-NH2)
- E. coli MIC (E. coli ATCC 35218): 6.3 µM
- MIC [1]: 8 µg/mL (≈ 4.54 µM)
- MIC [2]: 8 µg/mL (≈ 4.54 µM)
- MIC [3]: 16 µg/mL (≈ 9.07 µM)
- MIC (Enterococcus faecium 106): 4 µg/mL (≈ 2.27 µM)
- MIC [4]: 16 µg/mL (≈ 9.07 µM)
- MIC (Enterococcus faecalis 99): 64 µg/mL (≈ 36.3 µM)
- MIC [5]: 64 µg/mL (≈ 36.3 µM)
- MIC [6]: 16 µg/mL (≈ 9.07 µM)
- MIC [7]: 8 µg/mL (≈ 4.54 µM)
- MIC [8]: 64 µg/mL (≈ 36.3 µM)
- MIC [9]: 8 µg/mL (≈ 4.54 µM)
- MIC [10]: 64 µg/mL (≈ 36.3 µM)
- MIC [11]: 8 µg/mL (≈ 4.54 µM)
- MIC [12]: 8 µg/mL (≈ 4.54 µM)
- CC50 at 3 h (MTS assay, NIH 3T3 cells): 6.8 µM
- ID50 [13]: 6.8 µM

SMILES: C[C@@H](c1ccccc1)N(CC(N)=O)C(=O)CN(C(=O)CN(CCCCN)C(=O)CN(C(=O)CN(C(=O)CN(CCCCN)C(=O)CN(C(=O)CN(C(=O)CN(CCCCN)C(=O)[C@@H]1CCCN1C(=O)CN(C(=O)CNCCCCN)[C@@H](C)c1ccccc1)[C@@H](C)c1ccccc1)[C@@H](C)c1ccccc1)[C@@H](C)c1ccccc1)[C@@H](C)c1ccccc1)[C@@H](C)c1ccccc1 [1-Pro3, H-Nlys-Nspe-L-Pro-(Nlys-Nspe-Nspe)3-NH2] (H-[Nlys][Nspe]P[Nlys][Nspe][Nspe][Nlys][Nspe][Nspe][Nlys][Nspe][Nspe]-NH2)
- HD10 (human erythrocytes): 74 µM
- E. coli MIC (E. coli ATCC 35218): 12.5 µM
- CC50 at 3 h (MTS assay, NIH 3T3 cells): 12 µM
- ID50 [13]: 12 µM

- ID10 relative to that of pexiganan [14]: 10 times
- MIC for B. subtilis ATCC 6633 (B. subtilis ATCC 6633): 1.6 µM
- E. coli MIC (E. coli ATCC 35218): 12.5 µM
- MIC for E. coli ATCC 35218 (E. coli ATCC 35218): 12.5 µM
SMILES: C[C@@H](c1ccccc1)N(CC(N)=O)C(=O)CN(C(=O)CN(CCCCN)C(=O)CN(C(=O)CN(C(=O)CN(CCCCN)C(=O)[C@@H]1CCCN1C(=O)CN(C(=O)CN(CCCCN)C(=O)CN(C(=O)CN(C(=O)CNCCCCN)[C@@H](C)c1ccccc1)[C@@H](C)c1ccccc1)[C@@H](C)c1ccccc1)[C@@H](C)c1ccccc1)[C@@H](C)c1ccccc1)[C@@H](C)c1ccccc1 [1-Pro6, H-Nlys-Nspe-Nspe-Nlys-Nspe-L-Pro-(Nlys-Nspe-Nspe)2-NH2] (H-[Nlys][Nspe][Nspe][Nlys][Nspe]P[Nlys][Nspe][Nspe][Nlys][Nspe][Nspe]-NH2)
- HD10 (human erythrocytes): 83 µM
- HD50 (human erythrocytes): > 200 µM
- CC50 at 3 h (MTS assay, NIH 3T3 cells): 18 µM

- E. coli MIC (E. coli ATCC 35218): 6.3 µM
- ID50 [13]: 11 µM
SMILES: C[C@@H](c1ccccc1)N(CC(=O)N(CC(=O)N(CCCCN)CC(=O)N(CC(=O)N(CC(=O)N(CCCCN)CC(=O)N(CC(=O)N(CC(=O)N(CCCCN)CC(=O)N(CC(=O)N(CC(N)=O)Cc1ccccc1)Cc1ccccc1)Cc1ccccc1)Cc1ccccc1)Cc1ccccc1)Cc1ccccc1)Cc1ccccc1)C(=O)CNCCCCN [1ach-Nspe2, H-(Nlys-Nspe-Npm)-(Nlys-Npm-Npm)3-NH2] (H-[Nlys][Nspe][Nphe][Nlys][Nphe][Nphe][Nlys][Nphe][Nphe][Nlys][Nphe][Nphe]-NH2)
- CC50 at 3 h (MTS assay, NIH 3T3 cells): 11 µM

- E. coli MIC (E. coli ATCC 35218): 6.3 µM
- ID50 [13]: 15 µM
SMILES: C[C@@H](c1ccccc1)N(CC(N)=O)C(=O)CN(Cc1ccccc1)C(=O)CN(CCCCN)C(=O)CN(Cc1ccccc1)C(=O)CN(Cc1ccccc1)C(=O)CN(CCCCN)C(=O)CN(Cc1ccccc1)C(=O)CN(Cc1ccccc1)C(=O)CN(CCCCN)C(=O)CN(Cc1ccccc1)C(=O)CN(Cc1ccccc1)C(=O)CNCCCCN [1achiral-Nspe12, H-(Nlys-Npm-Npm)3-(Nlys-Npm-Nspe)-NH2]
- HD50 (human erythrocytes): > 200 µM
- CC50 at 3 h (MTS assay, NIH 3T3 cells): 15 µM

SMILES: CCC[C@H](C)N(CC(=O)N(CC(N)=O)[C@@H](C)c1ccccc1)C(=O)CN(CCCCN)C(=O)CN(C(=O)CN(C(=O)CN(CCCCN)C(=O)CN(C(=O)CN(C(=O)CN(CCCCN)C(=O)CN(C(=O)CN(C(=O)CNCCCCN)[C@@H](C)CCC)[C@@H](C)c1ccccc1)[C@@H](C)CCC)[C@@H](C)c1ccccc1)[C@@H](C)CCC)[C@@H](C)c1ccccc1 [2-Nsap2,5,8,11, H-(Nlys-Nsap-Nspe)4-NH2] (H-[Nlys][X2][Nspe][Nlys][X2][Nspe][Nlys][X2][Nspe][Nlys][X2][Nspe]-NH2)
- Selectivity ratio (SR) (E. coli JM109): >16

SMILES: C[C@@H](c1ccccc1)N(CC(N)=O)C(=O)CN(C(=O)CN(CCCCN)C(=O)CN(C(=O)CN(C(=O)CN(CCCCN)C(=O)CN(C(=O)CN(C(=O)CN(CCCCN)C(=O)CN(C(=O)CN(C(=O)CN(CCCCN)C(=O)CN(C(=O)CN(C(=O)CNCCCCN)[C@@H](C)c1ccccc1)[C@@H](C)c1ccccc1)[C@@H](C)c1ccccc1)[C@@H](C)c1ccccc1)[C@@H](C)c1ccccc1)[C@@H](C)c1ccccc1)[C@@H](C)c1ccccc1)[C@@H](C)c1ccccc1)[C@@H](C)c1ccccc1 [115 mer, H-(Nlys-Nspe-Nspe)5-NH2]
- cytotoxicity (in words) ([14]; A549 lung epithelial cells, MTS, FIG. 2): no worse than pexiganan
